Source: PubChem BioAssay AID330 (DTP/NCI, 2004)
“And” between values parts separate entries of the source, which are not always exact repeats. Equal values may be shown once. Toxic doses and inconclusive results are not listed.

System: P388 leukemia ip, CD2F1 mice, survival T/C
Assay: NCI In Vivo Anticancer Drug Screen. Data for tumor model P388 Leukemia (intraperitoneal) in CD2F1 (CDF1) mice
Conditions: endpoint: median survival time, higher = longer survival
Outline: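 Mice carrying the transplanted tumor received test compound or vehicle. Survival was recorded in each group, and the value is the treated-group measurement divided by that of the vehicle-treated control group.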

[1] = dose: 50.0 mg/kg/injection, schedule: Q01DX005 (ip), vehicle: saline with Tween-80
[2] = dose: 100.0 mg/kg/injection, schedule: Q01DX005 (ip), vehicle: saline with Tween-80
[3] = dose: 25.0 mg/kg/injection, schedule: Q01DX009 (ip), vehicle: Klucel (hydroxypropylcellulose) (HPC)
[4] = dose: 50.0 mg/kg/injection, schedule: Q01DX009 (ip), vehicle: Klucel (hydroxypropylcellulose) (HPC)
[5] = dose: 200.0 mg/kg/injection, schedule: Q01DX005 (ip), vehicle: saline with Tween-80
[6] = dose: 50.0 mg/kg/injection, schedule: Q01DX005 (ip), vehicle: Klucel (hydroxypropylcellulose) (HPC)
[7] = dose: 100.0 mg/kg/injection, schedule: Q01DX005 (ip), vehicle: Klucel (hydroxypropylcellulose) (HPC)
[8] = dose: 200.0 mg/kg/injection, schedule: Q01DX005 (ip), vehicle: Klucel (hydroxypropylcellulose) (HPC)
[9] = dose: 50.0 mg/kg/injection, schedule: Q01DX009 (ip), vehicle: saline with Tween-80
[10] = dose: 100.0 mg/kg/injection, schedule: Q01DX009 (ip), vehicle: saline with Tween-80
[11] = dose: 200.0 mg/kg/injection, schedule: Q01DX009 (ip), vehicle: saline with Tween-80
[12] = dose: 25.0 mg/kg/injection, schedule: Q01DX009 (ip), vehicle: saline
[13] = dose: 50.0 mg/kg/injection, schedule: Q01DX009 (ip), vehicle: saline
[14] = dose: 100.0 mg/kg/injection, schedule: Q01DX009 (ip), vehicle: saline

S=C(NNc1nnc(-c2ccccc2)c(-c2ccccc2)n1)NC1CCCCC1
T/C [1]: 93 % of control
T/C [2]: 88 % of control

CC(=O)Oc1ccc(C(O)CN(C)OC(C)=O)cc1OC(C)=O (stereo not given)
T/C (dose: 12.5 mg/kg/injection, schedule: Q01DX005 (ip), vehicle: Klucel + Tween-80): 100 % of control
T/C (dose: 25.0 mg/kg/injection, schedule: Q01DX005 (ip), vehicle: Klucel + Tween-80): 101 % of control
T/C (dose: 50.0 mg/kg/injection, schedule: Q01DX005 (ip), vehicle: Klucel + Tween-80): 101 % of control and 92 % of control

CN(C)c1ccc(/C=C/c2cc[n+](C)c(/C=C/c3ccc(N(C)C)cc3)c2)cc1
T/C (dose: 0.78 mg/kg/injection, schedule: Q01DX005 (ip), vehicle: saline): 115 % of control
T/C (dose: 1.56 mg/kg/injection, schedule: Q01DX005 (ip), vehicle: saline): 119 % of control

N#Cc1cnc(N)c(C#N)c1
T/C [3]: 104 % of control
T/C [4]: 104 % of control

O=C(Nc1nc2ccc(Cl)cc2[nH]1)c1ccccc1O
T/C [1]: 94 % of control
T/C [2]: 98 % of control
T/C [5]: 101 % of control

COC1(C)CNc2ccccc2C(=O)N1 (stereo not given)
T/C [1]: 96 % of control
T/C [2]: 98 % of control
T/C [5]: 94 % of control

CCN1C(=O)CC([Se]c2ccccc2)C1=O (stereo not given)
T/C (dose: 6.25 mg/kg/injection, schedule: Q04DX003 (ip), vehicle: Klucel (hydroxypropylcellulose) (HPC)): 99 % of control and 103 % of control
T/C (dose: 12.5 mg/kg/injection, schedule: Q04DX003 (ip), vehicle: Klucel (hydroxypropylcellulose) (HPC)): 99 % of control and 102 % of control
T/C (dose: 25.0 mg/kg/injection, schedule: Q04DX003 (ip), vehicle: Klucel (hydroxypropylcellulose) (HPC)): 100 % of control and 105 % of control
T/C (dose: 50.0 mg/kg/injection, schedule: Q04DX003 (ip), vehicle: Klucel (hydroxypropylcellulose) (HPC)): 103 % of control and 104 % of control
T/C (dose: 100.0 mg/kg/injection, schedule: Q04DX003 (ip), vehicle: Klucel (hydroxypropylcellulose) (HPC)): 100 % of control and 104 % of control

CCOP(=S)(N/N=C/c1ccc2ccccc2c1O)OCC
T/C [6]: 109 % of control
T/C [7]: 106 % of control
T/C [8]: 95 % of control

C/C(=N\NC(=S)N1CC2CCC(CC2)C1)c1nccs1
T/C (dose: 12.5 mg/kg/injection, schedule: Q01DX005 (ip), vehicle: saline with Tween-80): 124 % of control
T/C [1]: 154 % of control

CN1C(=O)N(C)C(O)(/C=C/c2c(Cl)cccc2Cl)N(C)C1=O
T/C (dose: 25.0 mg/kg/injection, schedule: Q01DX009 (ip), vehicle: saline with Tween-80): 106 % of control and 92 % of control
T/C [9]: 94 % of control and 96 % of control
T/C [10]: 93 % of control and 96 % of control
T/C [11]: 89 % of control and 91 % of control

CC(=O)SC12CCCN1C(=O)C1(SC(C)=O)CCCN1C2=O (stereo not given)
T/C (dose: 6.25 mg/kg/injection, schedule: Q01DX009 (ip), vehicle: saline): 98 % of control
T/C (dose: 12.5 mg/kg/injection, schedule: Q01DX009 (ip), vehicle: saline): 104 % of control
T/C [12]: 104 % of control
T/C [13]: 103 % of control
T/C [14]: 111 % of control

Oc1cc2c(ccc3ccccc32)c2c1CCC2
T/C (dose: 6.25 mg/kg/injection, schedule: Q01DX001 (ip), vehicle: Klucel (hydroxypropylcellulose) (HPC)): 106 % of control
T/C (dose: 12.5 mg/kg/injection, schedule: Q01DX001 (ip), vehicle: Klucel (hydroxypropylcellulose) (HPC)): 104 % of control
T/C (dose: 25.0 mg/kg/injection, schedule: Q01DX001 (ip), vehicle: Klucel (hydroxypropylcellulose) (HPC)): 119 % of control

CCOC(=O)C(Cc1c[nH]c2ccccc12)(NC(C)=O)C(=O)OCC
T/C (dose: 100.0 mg/kg/injection, schedule: Q04DX003 (ip), vehicle: saline with Tween-80): 100 % of control
T/C (dose: 200.0 mg/kg/injection, schedule: Q04DX003 (ip), vehicle: saline with Tween-80): 100 % of control
T/C (dose: 400.0 mg/kg/injection, schedule: Q04DX003 (ip), vehicle: saline with Tween-80): 100 % of control

CCC(C(=O)O)C(=O)O.[NH-]CC1CCCC[N-]1.[Pt+2]
T/C (dose: 25.0 mg/kg/injection, schedule: Q01DX005 (ip), vehicle: saline): 161 % of control
T/C [12]: 161 % of control
T/C (dose: 50.0 mg/kg/injection, schedule: Q01DX005 (ip), vehicle: saline): 217 % of control
T/C [9]: 202 % of control
T/C [13]: 189 % of control
T/C (dose: 100.0 mg/kg/injection, schedule: Q01DX005 (ip), vehicle: saline): 243 % of control and 267 % of control
T/C [14]: 252 % of control
T/C (dose: 125.0 mg/kg/injection, schedule: Q01DX001 (ip), vehicle: saline): 161 % of control
T/C (dose: 250.0 mg/kg/injection, schedule: Q01DX001 (ip), vehicle: saline): 191 % of control
T/C (dose: 500.0 mg/kg/injection, schedule: Q01DX001 (ip), vehicle: saline): 173 % of control and 198 % of control

CCOC(=O)C(Br)CN1C(=O)c2ccccc2C1=O (stereo not given)
T/C (dose: 60.0 mg/kg/injection, schedule: Q01DX005 (ip), vehicle: saline with Tween-80): 97 % of control
T/C (dose: 120.0 mg/kg/injection, schedule: Q01DX005 (ip), vehicle: saline with Tween-80): 115 % of control

O/N=C/C(=Nc1ccc(-c2ccc(N=C(/C=N/O)NO)cc2)cc1)NO
T/C (dose: 60.0 mg/kg/injection, schedule: Q01DX005 (ip), vehicle: Klucel (hydroxypropylcellulose) (HPC)): 103 % of control
T/C (dose: 120.0 mg/kg/injection, schedule: Q01DX005 (ip), vehicle: Klucel (hydroxypropylcellulose) (HPC)): 102 % of control
T/C (dose: 240.0 mg/kg/injection, schedule: Q01DX005 (ip), vehicle: Klucel (hydroxypropylcellulose) (HPC)): 97 % of control

Cn1c(/C=N/NC2=NCCCN2)cnc1[N+](=O)[O-]
T/C (dose: 100.0 mg/kg/injection, schedule: Q04DX002 (ip), vehicle: saline with Tween-80): 97 % of control
T/C (dose: 200.0 mg/kg/injection, schedule: Q04DX002 (ip), vehicle: saline with Tween-80): 104 % of control
T/C (dose: 400.0 mg/kg/injection, schedule: Q04DX002 (ip), vehicle: saline with Tween-80): 107 % of control

Cc1ccc(NC(=O)N2CC2)cc1NC(=O)N1CC1
T/C (dose: 0.78 mg/kg/injection, schedule: Q01DX009 (ip), vehicle: Klucel (hydroxypropylcellulose) (HPC)): 112 % of control
T/C (dose: 3.12 mg/kg/injection, schedule: Q01DX009 (ip), vehicle: Klucel (hydroxypropylcellulose) (HPC)): 154 % of control
T/C (dose: 6.25 mg/kg/injection, schedule: Q01DX009 (ip), vehicle: Klucel (hydroxypropylcellulose) (HPC)): 107 % of control and 90 % of control

O=C(/C=C\c1ccc(Cl)cc1)c1ccccc1
T/C (dose: 12.5 mg/kg/injection, schedule: Q01DX009 (ip), vehicle: Klucel (hydroxypropylcellulose) (HPC)): 101 % of control and 91 % of control
T/C [3]: 100 % of control
T/C [4]: 93 % of control and 95 % of control
T/C (dose: 50.0 mg/kg/injection, schedule: Q01DX009 (ip), vehicle: gum acacia): 98 % of control
T/C (dose: 100.0 mg/kg/injection, schedule: Q01DX009 (ip), vehicle: Klucel (hydroxypropylcellulose) (HPC)): 99 % of control and 93 % of control
T/C (dose: 100.0 mg/kg/injection, schedule: Q01DX009 (ip), vehicle: gum acacia): 104 % of control
T/C (dose: 200.0 mg/kg/injection, schedule: Q01DX009 (ip), vehicle: Klucel (hydroxypropylcellulose) (HPC)): 98 % of control and 100 % of control
T/C (dose: 200.0 mg/kg/injection, schedule: Q01DX009 (ip), vehicle: gum acacia): 104 % of control
T/C (dose: 400.0 mg/kg/injection, schedule: Q01DX009 (ip), vehicle: Klucel (hydroxypropylcellulose) (HPC)): 108 % of control and 92 % of control
T/C (dose: 400.0 mg/kg/injection, schedule: Q01DX009 (ip), vehicle: gum acacia): 104 % of control

O=C(NC(Cc1ccc(Br)cc1)C(=O)O)c1ccc(Br)cc1 (stereo not given)
T/C [6]: 104 % of control
T/C [7]: 101 % of control
T/C [8]: 104 % of control

CN1C(=O)N/C(=C2/CCOC2=O)C1=O
T/C [9]: 106 % of control
T/C [10]: 88 % of control
T/C [11]: 98 % of control

N#C/C(=C\c1cccs1)C(N)=S
T/C [13]: 100 % of control
T/C [14]: 102 % of control
T/C (dose: 200.0 mg/kg/injection, schedule: Q01DX009 (ip), vehicle: saline): 100 % of control

CN(c1ccccc1)c1cc(=O)nc2ccccn12
T/C (dose: 60.0 mg/kg/injection, schedule: Q01DX005 (ip), vehicle: saline): 105 % of control
T/C (dose: 120.0 mg/kg/injection, schedule: Q01DX005 (ip), vehicle: saline): 98 % of control
T/C (dose: 240.0 mg/kg/injection, schedule: Q01DX005 (ip), vehicle: saline): 105 % of control

CCOC(=O)CC(CC(=O)OCC)(C(=O)OCC)C(=O)OCC
T/C [9]: 92 % of control
T/C [10]: 100 % of control
T/C [11]: 96 % of control
T/C (dose: 400.0 mg/kg/injection, schedule: Q01DX009 (ip), vehicle: saline with Tween-80): 100 % of control

Cc1nc2c(ccc3ccccc32)s1
T/C [6]: 106 % of control
T/C [7]: 100 % of control
T/C [8]: 100 % of control
